According to patent publication US4291164A, “Cephalosporin analogs and methods for production thereof” (Kyowa Hakko Kogyo Co., Ltd., priority 1978, dated 1981):
≈ marks a conversion by molar mass, not a printed value. Structures can show the parent of a compound that is named as a salt.

How the values were obtained:
Type in all cases: cell-based
Pseudomonas putida F264 = assay: Antibacterial activity, Heart Infusion Agar Dilution Method, Pseudomonas putida F264; details: for MIC: pH 7.2, read-out: Minimum Inhibitory Concentration
[1] = system: Klebsiella pneumoniae 8045; assay: Antibacterial activity, Heart Infusion Agar Dilution Method, Klebsiella pneumoniae 8045; details: for MIC: pH 7.2, read-out: Minimum Inhibitory Concentration; for Minimum Inhibitory Concentration: pH 7.2
Experimental: (§1) The antibacterial activity of the compounds obtained in the above Examples 24, 26, 28, 30, 32, 34, 36, 38, 40 and 41 are determined by Heart Infusion Agar Dilution Method (pH 7.2). Cefazolin is used as a reference.

Proteus morganii KY4298 = assay: Antibacterial activity, Heart Infusion Agar Dilution Method, Proteus morganii KY4298; details: for MIC: Morganella morganii, pH 7.2, read-out: Minimum Inhibitory Concentration; for Minimum Inhibitory Concentration: pH 7.2
Experimental: as §1

Escherichia coli Juhl = assay: Antibacterial activity, Heart Infusion Agar Dilution Method, Escherichia coli Juhl; details: Escherichia coli Juhl, Heart Infusion Agar Dilution, pH 7.2; for MIC: read-out: Minimum Inhibitory Concentration
[2] = system: Staphylococcus aureus 209p; assay: Antibacterial activity, Heart Infusion Agar Dilution Method, Staphylococcus aureus 209p; details: for MIC: pH 7.2, read-out: Minimum Inhibitory Concentration
Experimental: as §1

[3] = system: Klebsiella pneumoniae Y60; assay: Antibacterial activity, Heart Infusion Agar Dilution Method, Klebsiella pneumoniae Y60; details: for MIC: pH 7.2, read-out: Minimum Inhibitory Concentration
Proteus mirabilis 1287 = assay: Antibacterial activity, Heart Infusion Agar Dilution Method, Proteus mirabilis 1287; details: for MIC: pH 7.2, read-out: Minimum Inhibitory Concentration; for Minimum Inhibitory Concentration: pH 7.2
Experimental: as §1

Serratia marcescens T26 = assay: Antibacterial activity, Heart Infusion Agar Dilution Method, Serratia marcescens T26; details: for MIC: pH 7.2, read-out: Minimum Inhibitory Concentration
Escherichia coli NIHJC2 = assay: Antibacterial activity, Heart Infusion Agar Dilution Method, Escherichia coli NIHJC2; details: Escherichia coli NIHJC2, Heart Infusion Agar Dilution, pH 7.2; for MIC: read-out: Minimum Inhibitory Concentration
Experimental: as §1

[4] = system: Pseudomonas aeruginosa 145; assay: Antibacterial activity, Heart Infusion Agar Dilution Method, Pseudomonas aeruginosa 145; details: for MIC: Pseudomonas aeruginosa, 145, pH 7.2, read-out: Minimum Inhibitory Concentration
Experimental: as §1

[5] = system: Staphylococcus epidermidis; assay: Antibacterial activity, Heart Infusion Agar Dilution Method, Staphylococcus epidermidis; details: for MIC: pH 7.2, read-out: Minimum Inhibitory Concentration
Experimental: as §1

Serratia marcescens T55 = assay: Antibacterial activity, Heart Infusion Agar Dilution Method, Serratia marcescens T55; details: for MIC: pH 7.2, read-out: Minimum Inhibitory Concentration; for Minimum Inhibitory Concentration: pH 7.2
Proteus vulgaris 6897 = assay: Antibacterial activity, Heart Infusion Agar Dilution Method, Proteus vulgaris 6897; details: for MIC: pH 7.2, read-out: Minimum Inhibitory Concentration; for Minimum Inhibitory Concentration: pH 7.2
Experimental: as §1

Proteus rettgeri KY4289 = assay: Antibacterial activity, Heart Infusion Agar Dilution Method, Proteus rettgeri KY4289; details: for MIC: Providencia rettgeri, pH 7.2, read-out: Minimum Inhibitory Concentration; for Minimum Inhibitory Concentration: pH 7.2
Experimental: as §1

[6] = system: Staphylococcus aureus Smith; assay: Antibacterial activity, Heart Infusion Agar Dilution Method, Staphylococcus aureus Smith; details: for MIC: pH 7.2, read-out: Minimum Inhibitory Concentration
Experimental: as §1

SMILES | MIC (Pseudomonas putida F264) [µg/mL] | MIC [1] [µg/mL] | MIC (Proteus morganii KY4298) [µg/mL] | MIC (Escherichia coli Juhl) [µg/mL] | MIC [2] [µg/mL] | MIC [3] [µg/mL] | MIC (Proteus mirabilis 1287) [µg/mL] | MIC (Serratia marcescens T26) [µg/mL] | MIC (Escherichia coli NIHJC2) [µg/mL] | MIC [4] [µg/mL] | MIC [5] [µg/mL] | MIC (Serratia marcescens T55) [µg/mL] | MIC (Proteus vulgaris 6897) [µg/mL] | MIC (Proteus rettgeri KY4289) [µg/mL] | MIC [6] [µg/mL] | other results
N[C@@H](C(=O)N[C@H]1C(=O)N2C(C(=O)O)=CCC[C@H]12)c1ccccc1 (racemic) [Example 26, (±)-cis-7-[(R)-2-phenyl-2-aminoacetamido]-1-azabicyclo-[4,2,0]oct-2-en-8-on-2-carboxylic acid] | > 100 | 3.12 (≈ 9.89 µM) | 100 (≈ 317 µM) | 12.5 (≈ 39.6 µM) | 0.4 (≈ 1.27 µM) | 12.5 (≈ 39.6 µM) | 25 (≈ 79.3 µM) | > 100 | 12.5 (≈ 39.6 µM) | > 100 | 6.25 (≈ 19.8 µM) | 25 (≈ 79.3 µM) | 25 (≈ 79.3 µM) | 50 (≈ 159 µM) | 12.5 (≈ 39.6 µM) | –
CON=C(C(=O)NC1C(=O)N2C(C(=O)O)=CC(C)CC12)c1csc(N)n1 (racemic) [Example 36, (±)-cis-7β-[2-(2-amino-4-thiazolyl)-2-methoxyiminoacetamido]-4β-methyl-2-carboxy-1-azabicyclo[4,2,0]oct-2-en-8-one] | – | – | – | – | – | – | – | – | – | – | – | – | – | – | – | Minimum Inhibitory Concentration (Pseudomonas putida F264; pH 7.2): 0.4 µg/mL; Minimum Inhibitory Concentration [1]: 0.2 µg/mL; Minimum Inhibitory Concentration (Proteus morganii KY4298): 0.78 µg/mL; Minimum Inhibitory Concentration ([2]; pH 7.2): 50 µg/mL; Minimum Inhibitory Concentration (Proteus mirabilis 1287): 0.78 µg/mL; Minimum Inhibitory Concentration (Serratia marcescens T26; pH 7.2): 6.25 µg/mL; Minimum Inhibitory Concentration (Escherichia coli NIHJC2): 0.2 µg/mL; Minimum Inhibitory Concentration ([4]; Pseudomonas aeruginosa 145, Heart Infusion Agar Dilution, pH 7.2): > 100 µg/mL; Minimum Inhibitory Concentration ([5]; pH 7.2): > 100 µg/mL; Minimum Inhibitory Concentration (Serratia marcescens T55): 3.12 µg/mL; Minimum Inhibitory Concentration (Proteus vulgaris 6897): 0.78 µg/mL; Minimum Inhibitory Concentration (Proteus rettgeri KY4289): 0.4 µg/mL; Minimum Inhibitory Concentration ([6]; pH 7.2): 100 µg/mL
CO/N=C(/C(=O)N[C@@H]1C(=O)N2C(C(=O)O)=CCC[C@H]12)c1csc(N)n1 (relative stereo) [Example 24, (±)-cis-7-[2-(2-amino-4-thiazolyl)-2-anti-methoxyimino-acetamido]-1-azabicyclo[4,2,0]oct-2-en-8-one-2-carboxylic acid] | 0.78 (≈ 2.13 µM) | 0.2 (≈ 0.547 µM) | 0.78 (≈ 2.13 µM) | 1.56 (≈ 4.27 µM) | 100 (≈ 274 µM) | 1.56 (≈ 4.27 µM) | 0.78 (≈ 2.13 µM) | 3.12 (≈ 8.54 µM) | 0.78 (≈ 2.13 µM) | > 100 | 100 (≈ 274 µM) | 1.56 (≈ 4.27 µM) | 0.4 (≈ 1.09 µM) | 0.1 (≈ 0.274 µM) | > 100 | –
C[C@H]1C=C(C(=O)O)N2C(=O)[C@@H](NC(=O)[C@H](N)c3ccccc3)[C@H]2C1 (relative stereo) [Example 30, trifluoroacetate of (±)-cis-7β-[(R)-2-phenyl-2-aminoacetamido]-4β-methyl-2-carboxy-1-azabicyclo[4,2,0]oct-2-en-8-one] | > 100 | 6.25 | > 100 | 25 | 0.4 | 100 | > 100 | > 100 | 50 | > 100 | 3.12 | > 100 | > 100 | > 100 | 1.56 | –
C[C@@H]1C=C(C(=O)O)N2C(=O)[C@@H](NC(=O)[C@H](N)c3ccccc3)[C@H]2C1 (relative stereo) [Example 32, (±)-cis-7β-[(R)-2-phenyl-2-aminoacetamido]-4α-methyl-2-carboxy-1-azabicyclo[4,2,0]oct-2-en-8-one] | 100 (≈ 304 µM) | 3.12 (≈ 9.47 µM) | 100 (≈ 304 µM) | 12.5 (≈ 38 µM) | 0.78 (≈ 2.37 µM) | > 100 | 50 (≈ 152 µM) | > 100 | 12.5 (≈ 38 µM) | > 100 | 6.25 (≈ 19 µM) | 25 (≈ 75.9 µM) | 50 (≈ 152 µM) | > 100 | 6.25 (≈ 19 µM) | –
CO/N=C(/C(=O)N[C@@H]1C(=O)N2C(C(=O)O)=C[C@@H](C)C[C@H]12)c1csc(N)n1 (relative stereo) [Example 34, (±)-cis-7β[2-(2-amino-4-thiazolyl)-2-anti-methoxyiminoacetamido]-4α-methyl-2-carboxy-1-azabicyclo[4,2,0]oct-2-en-8-one] | – | 0.1 (≈ 0.264 µM) | 0.78 (≈ 2.06 µM) | 0.78 (≈ 2.06 µM) | 12.5 (≈ 32.9 µM) | – | 0.2 (≈ 0.527 µM) | 25 (≈ 65.9 µM) | 0.4 (≈ 1.05 µM) | > 100 | 25 (≈ 65.9 µM) | – | < 0.05 | 0.1 (≈ 0.264 µM) | 25 (≈ 65.9 µM) | –
CO/N=C(\C(=O)N[C@@H]1C(=O)N2C(C(=O)O)=C[C@@H](C)C[C@H]12)c1csc(N)n1 (relative stereo) [Example 38, (±)-cis-7β-[2-(2-amino-4-thiazolyl)-2-syn-methoxyiminoacetamido]-4α-methyl-1-azabicyclo[4,2,0]oct-2-en-8-one-2-carboxylic acid] | ≤ 0.05 | ≤ 0.05 | ≤ 0.05 | ≤ 0.05 | 12.5 (≈ 32.9 µM) | ≤ 0.05 | ≤ 0.05 | – | ≤ 0.05 | > 100 | 12.5 (≈ 32.9 µM) | 0.1 (≈ 0.264 µM) | ≤ 0.05 | ≤ 0.05 | 12.5 (≈ 32.9 µM) | –
CO/N=C(\C(=O)N[C@@H]1C(=O)N2C(C(=O)O)=CCC[C@H]12)c1csc(N)n1 (relative stereo) [Example 40, (±)-cis-7-[2-(2-amino-4-thiazolyl)-2-syn-methoxyiminoacetamido]-1-azabicyclo[4,2,0]oct-2-en-8-on-2-carboxylic acid] | 0.1 (≈ 0.274 µM) | ≤ 0.05 | ≤ 0.05 | ≤ 0.05 | 12.5 (≈ 34.2 µM) | ≤ 0.05 | ≤ 0.05 | 0.78 (≈ 2.13 µM) | ≤ 0.05 | 50 (≈ 137 µM) | 12.5 (≈ 34.2 µM) | ≤ 0.05 | ≤ 0.05 | ≤ 0.05 | 12.5 (≈ 34.2 µM) | –
CC(=O)O[C@@H]1C=C(C(=O)O)N2C(=O)[C@@H](NC(=O)Cc3cccs3)[C@H]2C1 (relative stereo) [Example 41, (±)-cis-7β-(2-thienylacetamido)4α-acetoxy-1-azabicyclo[4,2,0]oct-2-en-8-on-2-carboxylic acid] | > 100 | > 100 | > 100 | 100 (≈ 274 µM) | 3.12 (≈ 8.56 µM) | 25 (≈ 68.6 µM) | > 100 | > 100 | 100 (≈ 274 µM) | > 100 | 12.5 (≈ 34.3 µM) | > 100 | > 100 | > 100 | 25 (≈ 68.6 µM) | –
N[C@@H](C(=O)NC1C(=O)N2C(C(=O)O)=CCCC12)c1ccccc1 (single isomer, unassigned) [Example 26 A isomer] | – | – | – | – | – | – | – | – | – | – | – | – | – | – | – | Minimum Inhibitory Concentration [1]: 50 µg/mL; Minimum Inhibitory Concentration (Proteus morganii KY4298): 50 µg/mL; Minimum Inhibitory Concentration (Escherichia coli Juhl): 100 µg/mL; Minimum Inhibitory Concentration ([3]; pH 7.2): 50 µg/mL; Minimum Inhibitory Concentration (Proteus mirabilis 1287): 25 µg/mL; Minimum Inhibitory Concentration (Escherichia coli NIHJC2): 50 µg/mL; Minimum Inhibitory Concentration (Serratia marcescens T55): 100 µg/mL; Minimum Inhibitory Concentration (Proteus vulgaris 6897): 25 µg/mL; Minimum Inhibitory Concentration (Proteus rettgeri KY4289): 6.25 µg/mL
